# Laboratory results reported in US12109176B1, “Effect of glycerol on biofilm forming bacteria and fungi that changes the microbes sensitivity to pro and anti-biofilm non-toxic, non-bonded plasma amino acids and amino acid derivatives” (priority 2023, dated 2024).
# What was measured:
# [1] = test system: bacterial and fungal biofilm; assay: In vitro testing on bacterial and fungal biofilm (assay not told apart); type: cell-based; settings: for effect on bacterial and fungal biofilm (in words): in vitro testing
# Method: (§1) Two types of biofilm assays were performed: an inhibition assay and a disruption assay. The inhibition assay assesses the compound's ability to prevent biofilm development, while the disruption assay assesses the compound's ability to break up an existing mature biofilm.
# (§2) All bacterial biofilm solutions were prepared in Tryptic Soy Broth (TSB), supplemented with 1% glucose (henceforth referred to as TSB-G). All subsequent procedures were performed in a manner that maintained sterility. A solution of each amino acid or an amino acid derivative to be tested was prepared in weight to volume concentrations ranging from 0.1-5.0%. Amino acids and amino acid derivatives were also tested in combinations. Compound solutions were homogenized with gentle agitation in the dark (4° C., 24 hours) before use.
# (§3) 32 Amino acids and 2 amino acid derivatives of the amino acid serine that occur freely in human blood were tested. […] 31 of the 32 amino acids that were tested were the L-Isomers. Glycine has no stereoisomers. The 2 amino acid derivatives, ethanolamine and phosphoethanolamine were also tested. All biofilm assays were performed using 384-well non-tissue culture-treated polystyrene plates. The fungal species tested are as follows: Candida albicans, Candida guilliermondii, Candida parapsilosis, Candida glabrata, Candida tropicalis and Candida dubliniensis. The bacterial species tested are as follows: Staphylococci (standard wild type and methicillin-resistant strain USA300), Escherichia coli, Pseudomonas aeruginosa and Staphylococcus epidermidis.
# (§4) Fungal strains were streaked on Yeast Peptone Dextrose (YPD) agar plates and incubated at 30° C. for 48 hours. A single colony from each strain to be tested was inoculated into YPD broth and grown for 12 hours at 30° C., shaking at 225 rpm. […] The cells were allowed to adhere to the plate for 90 minutes at 37° C. with shaking (350 rpm). […] The plate was further incubated for 24 hours at 37° C. with shaking (350 rpm). Media was carefully aspirated and the biofilm was measured by optical density at 600 nm. […] The cells were allowed to adhere to the plate for 90 minutes at 37° C. with shaking (350 rpm). […] The plate was further incubated for 24 hours at 37° C. with shaking (350 rpm). […] The plate was further incubated for 24 hours at 37° C. with shaking (350 rpm). Media was carefully aspirated, and the biofilm was measured by optical density at 600 nm.
# (§5) Bacterial strains were streaked on Blood Agar plates (5% sheep blood in Tryptic Soy Broth) and incubated at 37° C. for 24 hours. A single colony from each strain to be tested was inoculated in a TSB broth and grown for 12 hours, at 37° C. with shaking (225 rpm). For the bacterial biofilm inhibition assays, 1 μL of saturated overnight cell culture was added to either 80 μL of TSB-G, or TSB-G supplemented with the amino acid compound solution to be tested, in a 384-well plate. The cells were allowed to adhere to the plate for 60 minutes at 37° C. without shaking. The media was carefully aspirated and 80 μL of TSB-G, or TSB-G supplemented with the amino acid compound solution was added to the plate. The plate was further incubated for 24 hours at 37° C. without shaking. Media was carefully aspirated and the biofilm was measured by optical density at 600 nm. Eight or twelve replicates were performed for each tested condition and the reported values are normalized to the control (TSB-G media only). For the bacterial biofilm disruption assays, 80 µL of TSB-G was added to the plate, along with 1 μL of overnight cell culture. The cells were allowed to adhere to the plate for 60 minutes at 37° C. with no shaking. The media was carefully aspirated and 80 μL of TSB-G was added to the plate. The plate was further incubated for 24 hours at 37° C. with no shaking. Media was carefully aspirated from the mature biofilm and 80 μL of TSB-G, or TSB-G supplemented with the amino acid to be tested, was gently added to the plate.
# [2] = in vivo
# [3] = test system: bacterial (S. aureus) biofilm and fungal biofilm (C. albicans); assay: Biofilm inhibition assay, bacterial and fungal taken together; type: cell-based; settings: for Neutral (square: Inhibition Biofilm Assay): symbol marks the assay
# [4] = Thermal degradation in hot aqueous solution; type: physicochemical; settings: water at about 90 C. to 100 C.
# From the text: In order to promote the dissolution of the various amino acids in water, the water is usually maintained at a temperature of about 90 C. to 100 C.
# [5] = test system: bacterial (S. aureus) biofilm; assay: Bacterial biofilm disruption assay; type: cell-based, Staphylococcus aureus
# fungal biofilm = assay: In vitro testing on fungal biofilm (inhibition and/or disruption); type: cell-based; settings: in vitro testing
# Method: as §1, §2, §3, §4
# [6] = test system: fungal biofilm (C. albicans); assay: Fungal biofilm inhibition assay; type: cell-based, Candida albicans
# Method: as §1, §2, §3, §4
# [7] = test system: bacterial (S. aureus) biofilm and fungal biofilm (C. albicans); assay: Biofilm disruption assay, bacterial and fungal taken together; type: cell-based
# Method: as §1, §2, §3, §4, §5
# [8] = test system: fungal biofilm (C. albicans); assay: Fungal biofilm disruption assay; type: cell-based, Candida albicans
# bacterial biofilm = assay: In vitro testing on bacterial biofilm (inhibition and/or disruption); type: cell-based; settings: in vitro testing
# [9] = test system: bacterial (S. aureus) biofilm; assay: Bacterial biofilm inhibition assay; type: cell-based, Staphylococcus aureus
# [10] = Table F, in the presence of a sufficient concentration of glycerol
# [11] = Table D, bacterial and fungal biofilm
compound,measurement,setting,value
OCC(O)CO [glycerol],effect on bacterial and fungal biofilm (in words),[1],not found to have antibiofilm effect
same,toxicity of the glycerol infusion,[2],non-toxic to humans
"NC(=O)CC[C@H](N)C(=O)O [Glutamine, L-glutamine]",Neutral (square: Inhibition Biofilm Assay),"[3]; Table D, Neutral = no effect on the biofilm",▪ (Single square [ie. ▪] signifies little effect on the Inhibition Biofilm Assay (from about 10 to less than 30%))
same,Neutral (square: Inhibition Biofilm Assay),"[3]; Table E, in the absence of an infusion of glycerol",▪ (Single square [ie. ▪] signifies little effect on the Inhibition Biofilm Assay (from about 10 to less than 30%))
same,Neutral (square: Inhibition Biofilm Assay),[3]; [10],▪ (Single square [ie. ▪] signifies little effect on the Inhibition Biofilm Assay (from about 10 to less than 30%))
same,thermal stability in aqueous solution,[4],too susceptible to thermal degradation
"N[C@@H](CCC(=O)O)C(=O)O [Glutamic Acid, L-glutamic acid]",ideal concentration for antibiofilm effect,[1]; in the absence of glycerol on in vitro testing,0.5 g %
same,effect on bacterial and fungal biofilm (in words),[1],very active against both bacterial and fungal biofilm
same,effect on bacterial and fungal biofilm (in words),[1]; listed as Glutamic acid,strong effect on biofilm-forming bacteria and fungi in reducing biofilm formation
same,concentration of maximum (ideal) antibiofilm effect,"[1]; tested on its own, without glycerol",0.5%
same,Reduce Both (squares: Inhibition Biofilm Assay),[3]; [11],"▪▪ (Two squares [ie. ▪▪] signifies a major effect (greater than about 50%), on the Inhibition Biofilm Assay)"
same,Reduce Both (squares: Inhibition Biofilm Assay),[3]; [10],"▪▪ (Two squares [ie. ▪▪] signifies a major effect (greater than about 50%), on the Inhibition Biofilm Assay)"
same,Reduce or Inhibit B Biofilm (dots: Disruption Biofilm Assay),"[5]; Table D, 0.1 to 5.0%","●● (Two dots [ie. ●●] signifies a major effect (greater than about 50%), on the Disruption Biofilm Assay)"
same,Reduce or Inhibit B Biofilm (dots: Disruption Biofilm Assay),[5]; [10],"●● (Two dots [ie. ●●] signifies a major effect (greater than about 50%), on the Disruption Biofilm Assay)"
same,effect on fungal biofilm (in words),fungal biofilm,antifungal biofilm effects
same,Reduce or Inhibit F Biofilm (squares: Inhibition Biofilm Assay),"[6]; Table D, 0.1 to 5.0%","▪▪ (Two squares [ie. ▪▪] signifies a major effect (greater than about 50%), on the Inhibition Biofilm Assay)"
same,Reduce or Inhibit F Biofilm (squares: Inhibition Biofilm Assay),[6]; [10],"▪▪ (Two squares [ie. ▪▪] signifies a major effect (greater than about 50%), on the Inhibition Biofilm Assay)"
same,Reduce Both (dots: Disruption Biofilm Assay),[7]; [11],"●● (Two dots [ie. ●●] signifies a major effect (greater than about 50%), on the Disruption Biofilm Assay)"
same,Reduce Both (dots: Disruption Biofilm Assay),[7]; [10],"●● (Two dots [ie. ●●] signifies a major effect (greater than about 50%), on the Disruption Biofilm Assay)"
same,Reduce or Inhibit F Biofilm (dots: Disruption Biofilm Assay),"[8]; Table D, 0.1 to 5.0%","●● (Two dots [ie. ●●] signifies a major effect (greater than about 50%), on the Disruption Biofilm Assay)"
same,Reduce or Inhibit F Biofilm (dots: Disruption Biofilm Assay),[8]; [10],"●● (Two dots [ie. ●●] signifies a major effect (greater than about 50%), on the Disruption Biofilm Assay)"
same,effect on bacterial biofilm (in words),bacterial biofilm,antibacterial biofilm effect
same,Reduce or Inhibit B Biofilm (squares: Inhibition Biofilm Assay),"[9]; Table D, 0.1 to 5.0%","▪▪ (Two squares [ie. ▪▪] signifies a major effect (greater than about 50%), on the Inhibition Biofilm Assay)"
same,Reduce or Inhibit B Biofilm (squares: Inhibition Biofilm Assay),[9]; [10],"▪▪ (Two squares [ie. ▪▪] signifies a major effect (greater than about 50%), on the Inhibition Biofilm Assay)"
